Source: patent US11845736B2, “Prodrugs of MDMA, MDA, and derivatives thereof” (EmpathBio, Inc., priority 2021, dated 2023)
In brackets after ≈: the same amount, converted by molar mass. Like-named read-outs stand apart in the source and are kept apart here.

Experiments:
[1] = Compound chemical stability SGF with pepsin
[2] = Compound chemical stability PBS (pH 6.5)
[3] = Compound solubility in FaSSIF
[4] = Compound chemical stability SGF without pepsin
[5] = Compound mouse plasma stability
[6] = healthy human subjects, cited from earlier work
[7] = cited from earlier work; for Cmax / Tmax: healthy human subjects

| SMILES | % Remaining ([1]; 0 minutes) [%] | % Remaining ([1]; 30 minutes) [%] | % Remaining ([1]; 60 minutes) [%] | % Remaining ([1]; 120 minutes) [%] | % Remaining ([1]; 240 minutes) [%] | % Remaining ([2]; PBS pH 6.5, 0 minutes) [%] | % Remaining ([2]; PBS pH 6.5, 30 minutes) [%] | % Remaining ([2]; PBS pH 6.5, 60 minutes) [%] | % Remaining ([2]; PBS pH 6.5, 120 minutes) [%] | % Remaining ([2]; PBS pH 6.5, 240 minutes) [%] | solubility [3] [µM] | % Remaining ([4]; 0 minutes) [%] | % Remaining ([4]; 30 minutes) [%] | % Remaining ([4]; 60 minutes) [%] | % Remaining ([4]; 120 minutes) [%] | % Remaining ([4]; 240 minutes) [%] | % Remaining ([5]; 0 minutes) [%] | % Remaining ([5]; 15 minutes) [%] | % Remaining ([5]; 30 minutes) [%] | % Remaining ([5]; 60 minutes) [%] | also measured |
| --- | --- | --- | --- | --- | --- | --- | --- | --- | --- | --- | --- | --- | --- | --- | --- | --- | --- | --- | --- | --- | --- |
| Cc1oc(=O)oc1CN[C@H](C)Cc1ccc2c(c1)OCO2 [Compound 8, (R)-4-(((1-(benzo[d][1,3]dioxol-5-yl)propan-2-yl)amino)methyl)-5-methyl-1,3-dioxol-2-one] | 100 | 103 | 98 | 96 | 92 | 100 | 96 | 93 | 75 | 72 | 283 (≈ 82.4 µg/mL) | 100 | 97 | 94 | 90 | 86 | 100 | 72 | 54 | 25 | % Remaining ([5]; 120 minutes): 6% |
| C[C@H](Cc1ccc2c(c1)OCO2)N(C)C(=O)OC(C)(C)C [Compound 7, tert-butyl(R)-(1-(benzo[d][1,3]dioxol-5-yl)propan-2-yl)(methyl)carbamate] | 100.00 | 74.97 | 63.49 | 56.42 | 28.25 | 100.00 | 94.54 | 105.49 | 105.72 | 102.75 | 257 (≈ 75.3 µg/mL) | 100.00 | 89.90 | 73.62 | 61.79 | 30.52 | 100 | 101 | 92 | 83 | % Remaining ([5]; 120 minutes): 92% |
| CC(Cc1ccc2c(c1)OCO2)N(C)C(=O)CN (stereo not shown) [Compound 4, 2-amino-N-(1-(benzo[d][1,3]dioxol-5-yl)propan-2-yl)-N-methylacetamide] | 100.00 | 108.06 | 98.50 | 106.18 | 103.88 | 100.00 | 88.84 | 92.54 | 92.04 | 92.48 | 291 (≈ 72.9 µg/mL) | 100.00 | 94.49 | 96.72 | 96.67 | 96.46 | 100.00 | 102.99 | 83.50 | 94.51 | % Remaining ([5]; 120 minutes): 87.42% |
| CCOC(=O)NC(C)Cc1ccc2c(c1)OCO2 (stereo not shown) [Compound 2, ethyl(1-(benzo[d][1,3]dioxol-5-yl)propan-2-yl)carbamate] | 100.00 | 100.95 | 97.74 | 98.18 | 99.08 | 100.00 | 89.05 | 87.87 | 91.21 | 88.66 | 313 (≈ 78.8 µg/mL) | 100.00 | 102.53 | 101.64 | 90.45 | 99.40 | 100.00 | 101.77 | 86.60 | 89.02 | % Remaining ([5]; 120 minutes): 84.42% |
| CNC(C)Cc1ccc2c(c1)OCO2 (racemic) [MDMA, 3,4-methylenedioxymethamphetamine] |  |  |  |  |  |  |  |  |  |  |  |  |  |  |  |  |  |  |  |  | Cmax ([6]; 75 mg MDMA): 130.9 ng/mL; T1/2 (elimination half-life) ([6]; 75 mg MDMA): 7.7 h; Tmax ([6]; 75 mg MDMA): 1.8 h; Cmax ([6]; 125 mg MDMA): 236.4 ng/mL; T1/2 (elimination half-life) ([6]; 125 mg MDMA): 8.6 h; Tmax ([6]; 125 mg MDMA): 2.4 h |
| CC(N)Cc1ccc2c(c1)OCO2 (stereo not shown) [MDA] |  |  |  |  |  |  |  |  |  |  |  |  |  |  |  |  |  |  |  |  | Cmax ([7]; 75 mg MDA): 7.8 ng/mL; Tmax ([7]; 75 mg MDMA): 5 h; Cmax ([7]; 125 mg MDA): 13.7 ng/mL; Tmax ([7]; 125 mg MDMA): 7 h; MDA formation rate constant ([7]; estimated for both MDMA doses): about 0.75 h |
| CC(OC(=O)N(C)C(C)Cc1ccc2c(c1)OCO2)OC(=O)C(C)(C)C (stereo not shown) [Compound 3, 1-(((1-(benzo[d][1,3]dioxol-5-yl)propan-2-yl)(methyl)carbamoyl)oxy)ethyl pivalate] | 100.00 | 106.44 | 108.51 | 103.98 | 106.17 | 100.00 | 103.45 | 107.91 | 105.56 | 96.60 | 101 (≈ 37 µg/mL) | 100.00 | 97.82 | 97.35 | 93.65 | 94.12 | 100 | 0.0 | 0.0 | 0.0 | % Remaining ([5]; 120 minutes): 0.0% |
| C[C@H](Cc1ccc2c(c1)OCO2)NC(=O)OC(C)(C)C [Compound 6, tert-butyl(R)-(1-(benzo[d][1,3]dioxol-5-yl)propan-2-yl)carbamate] | 100.00 | 85.17 | 79.89 | 56.87 | 31.48 | 100.00 | 84.81 | 93.60 | 103.65 | 91.66 | 175 (≈ 49 µg/mL) | 100.00 | 87.96 | 77.20 | 57.49 | 28.57 | 100 | 102 | 106 | 92 | % Remaining ([5]; 120 minutes): 95% |
| CCOC(=O)N(C)C(C)Cc1ccc2c(c1)OCO2 (stereo not shown) [Compound 1, ethyl(1-(benzo[d][1,3]dioxol-5-yl)propan-2-yl)(methyl)carbamate] | 100.00 | 101.86 | 98.61 | 103.31 | 100.50 | 100.00 | 90.48 | 90.36 | 89.59 | 90.28 | 309 (≈ 82 µg/mL) | 100.00 | 103.81 | 101.90 | 103.81 | 104.29 | 100.00 | 108.51 | 87.67 | 98.49 | % Remaining ([5]; 120 minutes): 89.31% |
| CC(Cc1ccc2c(c1)OCO2)NC(=O)CN (stereo not shown) [Compound 5, 2-amino-N-(1-(benzo[d][1,3]dioxol-5-yl)propan-2-yl)acetamide] | 100.00 | 99.68 | 105.84 | 94.42 | 91.97 | 100.00 | 95.53 | 97.09 | 98.67 | 105.87 | 304 (≈ 71.8 µg/mL) | 100.00 | 101.17 | 91.48 | 95.49 | 100.41 | 100.00 | 103.33 | 87.64 | 90.78 | % Remaining ([5]; 120 minutes): 83.06% |
| Cc1oc(=O)oc1CN(C)[C@H](C)Cc1ccc2c(c1)OCO2 [Compound 9, (R)-4-(((1-(benzo[d][1,3]dioxol-5-yl)propan-2-yl)(methyl)amino)methyl)-5-methyl-1,3-dioxol-2-one] | 100 | 97 | 92 | 87 | 71 | 100 | 83 | 75 | 55 | 32 | 223 (≈ 68.2 µg/mL) | 1000 | 94 | 89 | 83 | 72 | 100 | 70 | 22 | 4 |  |
